# From US20120076762A1, “INDUCED PLURIPOTENT STEM CELL GENERATION USING TWO FACTORS AND P53 INACTIVATION” (THE SALK INSTITUTE FOR BIOLOGICAL STUDIES, priority 2009, published 2012)
# Marks after values point to notes of the source that are not given here.
# Legend:
# [1] = system: Mouse embryonic fibroblasts (MEFs); experiment: Reprogramming of mouse embryonic fibroblasts to iPS cells (Nanog-positive colonies); format: cell-based; conditions: for Effect on reprogramming / Fold increase in reprogramming / Nanog-positive colony formation vs control: 3-F; for Direction and grade of change in reprogramming efficiency (arrows) / Reprogramming efficiency (Nanog-positive colonies / infected cells) / Fold increase in reprogramming / Nanog-positive colony formation vs control: MEFs
# Description: (§1) VSV-G viruses were produced in HEK293T cells. For pMX-based and pMSCV-based retroviruses, vectors were transfected using CaPO4 or lipofectamin, following the manufacturers' directions. One day after transfection, culture medium was changed to new medium. For lentivirus, pBOBI-based^34 or pLVTHM-based^37 vectors were transfected by Lipofectamine™ 2000 (Invitrogen) according to the manufacturer's protocol. Six hours after transfection, the DNA-lipofectamine-complex was removed and the medium was replaced the next day. Two days after transfection, the supernatant containing viruses was collected and filtered through a 0.45 μm filter. Mouse iPS cells were induced as previously described^38,39. Briefly, mouse embryonic fibroblasts (passage 3 to 5) were infected (day 0) with pMX-based retroviruses together with pLVTHM-based lentivirus for shRNAs or pBOBI-based lentivirus for Bcl-2. On day 2, cells were passed onto new gelatin-coated plates. Medium was changed every 2 days. On day 12 to 14, cells were fixed for immunofluorescence study. For the Nutlin3a experiments, cells were treated starting from day 4. Reprogramming of human embryonic fibroblasts (IMR90) was done as previously described^2′^3. Briefly, IMR90 fibroblasts (passage 7 to 9) were infected (day 0) with pMSCV-based retroviruses+pLVTHM-based lentiviruses for p53 shRNA. On day 4 or 5, cells were passed onto feeder MEFs. Medium was changed every day. Around 3 weeks after infection, cells were fixed for immunofluorescence studies. Reprogramming of human primary keratinocytes was carried out essentially as described^6. Cells were co-infected with retroviral supernatants containing 3 or 4 reprogramming factors and p53-DD or GFP at a 1:2 ratio. To assess the reprogramming efficiency, cells were trypsinized 3 days after retroviral infection and 10^4 cells were plated onto 6-cm tissue culture dishes on top of irradiated human foreskin fibroblasts with hES cell medium.
# The number of Nanog-positive colonies was calculated after immunostaining at d12-14. The total number of Nanog-positive colonies was divided by the number of infected cells. Error numbers indicate s.d. The term “s.d.” refers in the customary sense to standard deviation. The term “s.e.” refers in the customary sense to standard error. Student's t-tests were performed for statistical analysis. p=0.007 (p53-shRNA vs mock, n=4 in each), p=0.0006 (p53−/− vs WT, n=3 in each), p=0.009 (p21-shRNA vs mock, n=4 in each), p=0.0005 (Arf-shRNA vs mock, n=3 in each), p=0.028 (Arf/Ink4a-shRNA vs mock, n=3 in each), p=0.010 (Ctl(solvent) vs Nutlin-3(10 μM), n=3 in each), p=0.045 (3SA/3SA vs WT, n=3 in each), p=0.022 (Bcl-2 vs mock, n=4 in each), and p=0.012 (c-Myc versus mock, n=4 in each).
# [2] = system: human primary keratinocytes; experiment: Reprogramming of human primary keratinocytes (AP-positive hES-like colonies); format: cell-based
# Description: FIG. 5: Downregulation of p53 activity increases reprogramming efficiency of human somatic cells. (FIG. 5a) Human embryonic fibroblasts were infected with retroviruses encoding Oct4/Sox2/Klf4 (3-F) or Oct4/Sox2/Klf4/c-Myc (4-F) factors in combination with lentiviruses expressing control- or p53-shRNA. Emerging colonies of iPS cells were visualized by immunostaining with anti-Nanog antibody using an ABC method. […] (FIG. 5b) Human primary keratinocytes were co-infected with 4-F and retroviruses expressing GFP or p53-DD. 5×10^4 infected cells were plated on 10-cm dishes and stained for AP activity after 2 weeks. […] Actin was used as a loading control. (FIG. 5c) The bars represent the average number of iPS-like colonies obtained from 10^4 keratinocytes reprogrammed with 3-F or 4-F and retroviruses encoding GFP or p53-DD, in the absence or presence of the p53 agonist Nutlin3a (n=3). iPS-like colonies were scored as having hES-like morphology and positive AP staining. Due to the numerous colonies generated in 4-F p53-DD keratinocytes, quantification was done using 10^4 cells. […]
# Arf = Arf level after shRNA in MEFs (Western blot); format: cell-based, mouse; conditions: lentiviral shRNA, day 4
# Description: FIG. 2: Modulation of p53 activity alters reprogramming efficiency. (FIG. 2a) Fold change in the number of 3-F induced Nanog-positive colonies by Arf shRNA compared to control shRNA (n=3). Protein levels of Arf, Ink4a and α-Tubulin (loading control) on day 4 after infection are shown. (FIG. 2b) Fold change in the number of 3-F induced Nanog-positive colonies by Arf/Ink4a shRNA compared to control shRNA (n=3). Protein levels of Arf, Ink4a and α-Tubulin (loading control) on day 4 after infection are shown. (FIG. 2c) MEFs isolated from wild type (+/+), Mdmx-3SA heterozygous (3SA/+) and homozygous (3SA/3SA) mice were exposed to 5Gy of gamma-irradiation for 4 hours. p21 mRNA levels were analyzed by QPCR. Results were normalized to untreated WT samples for fold induction. (FIG. 2d) 3-F induced Nanog-positive colonies in wild type (+/+) and homozygous (3SA/3SA) mice (n=3).
# Cells were washed once in PBS and lysed in 2×SDS-PAGE sample buffer without 2-mercaptoethanol and glycerol. Lysates were briefly sonicated and cleared by centrifugation. The protein concentration was determined by a BCA Protein Assay Kit (Thermo Scientific). Lysates were then mixed with 2-mercaptoethanol, BPB and glycerol, and boiled. Equal amounts of proteins were subjected to SDS-PAGE. […] Quantitative PCR was performed using SYBR® GREEN PCR Master Mix (Applied Biosystems).
# p21 = p21 expression after shRNA in MEFs; format: cell-based, mouse; conditions: lentiviral shRNA
# Description: FIG. 1: Increased generation of iPS cells by blocking p53 and p21. (FIG. 1a) Mouse embryonic fibroblasts (MEFs) were infected by retroviruses encoding 3 transcription factors (Oct4/Sox2/Klf4), 2 factors (Oct4/Sox2), Klf4, c-Myc or GFP. Four days after infection, the protein levels of p53, Arf, and p21 were analyzed by Western Blotting. α-tubulin was used as a loading control. (FIG. 1b) Mouse embryonic fibroblasts (MEFs) were infected by retroviruses encoding three transcription factors (Oct4/Sox2/Klf4) in combination with mock, control shRNA (GFP) and p53 shRNA (#1 and #2). Emerging colonies of iPS cells were visualized by immunostaining with anti-Nanog antibody using an Avidin Biotin Complex (ABC) method. (FIG. 1c) The fold change in the number of Nanog-positive colonies compared to mock (n=4). For all figures in this study, error bars indicate s.d. (FIG. 1d) Effect of Nutlin 3a on the number of Nanog-positive colonies by 3 factors in combination with mock, p53, and p21 shRNA. Cells were treated by Nutlin 3a (0, 3, 10 μM) starting from day 4. […]
# Cells were washed once in PBS and lysed in 2×SDS-PAGE sample buffer without 2-mercaptoethanol and glycerol. […] The protein concentration was determined by a BCA Protein Assay Kit (Thermo Scientific). […] Quantitative PCR was performed using SYBR® GREEN PCR Master Mix (Applied Biosystems).
# [3] = system: human embryonic fibroblasts (HEFs, IMR90); experiment: Reprogramming of human embryonic fibroblasts (Nanog- or Tra1-81-positive colonies); format: cell-based
# Description: as §1, with “.” for “VSV-G viruses were produced in HEK293T cells.”
# The number of Nanog- or Tral-81-positive colonies was calculated after immunostaining at dl 8-27. No colonies were observed from mock +4-F or 3-F cells in all trials. The total number of colonies was divided by the number of infected cells. Error numbers indicate s.d (n=4).
# [4] = 3F (Oct4/Sox2/Klf4), d12-14, error = s.d.
compound,measurement,setting,value
COc1ccc(C2=N[C@@H](c3ccc(Cl)cc3)[C@@H](c3ccc(Cl)cc3)N2C(=O)N2CCNC(=O)C2)c(OC(C)C)c1 [Nutlin3a],Effect on iPS cell formation,"[1]; 3-F MEFs with p53 reduced by most effective shRNA, 0, 3, 10 μM from day 4",dose-dependent decrease
same,Effect on reprogramming,[1]; p53(+/+) MEFs,dramatically reduced reprogramming
same,Effect on reprogramming,[1]; p53-null (−/−) MEFs,did not have any effects
same,Direction and grade of change in reprogramming efficiency (arrows),"[1]; 3F, Nutlin-3 10 μM vs solvent",↓↓
same,Reprogramming efficiency (Nanog-positive colonies / infected cells),"[1]; 3F, Nutlin-3 10 μM vs solvent, treated from day 4, error = s.d.",0.007 + 0.008% vs 0.114 + 0.054%
same,Effect on reprogramming,[2]; 3-F or 4-F p53-DD expressing keratinocytes,inability of Nutlin3a to reduce reprogramming
same,Effect on reprogramming efficiency,"[2]; human keratinocytes, 3-F or 4-F",markedly reduced the reprogramming efficiency
"Arf shRNA: shRNA sequence CACCGGAATCCTGGACCAG, SEQ ID NO: 5",Fold increase in reprogramming / Nanog-positive colony formation vs control,[1],approximately 2 fold
same,Reprogramming efficiency (Nanog-positive colonies / infected cells),[1]; [4],0.163 ± 0.013% vs 0.085 + 0.083%
same,Direction and grade of change in reprogramming efficiency (arrows),"[1]; 3F, vs control",↑
same,Reduction of Arf levels,Arf,2-4 fold
"Arf/Ink4a shRNA: shRNA sequence AATGGCTGGATTGTTTAAA, SEQ ID NO: 6",Reprogramming efficiency (Nanog-positive colonies / infected cells),[1]; [4],0.366 ± 0.144% vs 0.114 + 0.054%
same,Direction and grade of change in reprogramming efficiency (arrows),"[1]; 3F, vs control",↑↑
"p21 shRNA: shRNA sequence TTAGGACTCAACCGTAATA, SEQ ID NO: 4",Reduction of p21 expression,p21,3-4 fold
same,Fold increase in reprogramming / Nanog-positive colony formation vs control,[1],approximately 3 fold
same,Reprogramming efficiency (Nanog-positive colonies / infected cells),[1]; [4],0.359 ± 0.144% vs 0.114 + 0.054%
same,Direction and grade of change in reprogramming efficiency (arrows),"[1]; 3F, vs control",↑↑↑
"p53shRNA: lentiviral shRNA against human p53, sequence GACTCCAGTGGTAATCTAC, SEQ ID NO: 7 (lentiviral vector)",Actual number of Nanog-positive colonies,"[3]; 3-F, Trial 1",10 colonies/3 × 10^4 cells (p53shRNA)
same,Actual number of Nanog-positive colonies,"[3]; 3-F, Trial 2",2 colonies/1 × 10^4 cells (p53shRNA)
same,Reprogramming efficiency of HEFs,"[3]; 3-F, average of 2 independent experiments",0.027% *
same,Actual number of Nanog-positive colonies,"[3]; 4-F, Trial 1",86 colonies/2 × 10^4 cells (p53shRNA)
same,Actual number of Nanog-positive colonies,"[3]; 4-F, Trial 2",13 colonies/2 × 10^4 cells (p53shRNA)
same,Actual number of Nanog-positive colonies,"[3]; 4-F, Trial 3",19 colonies/2 × 10^4 cells (p53shRNA)
same,Actual number of Nanog-positive colonies,"[3]; 4-F, Trial 4",4 colonies/2 × 10^4 cells (p53shRNA)
same,Reprogramming efficiency of HEFs,"[3]; 4-F, ± s.d. (n=4)",0.153 ± 0.188%
